US20260199240A1, “BIOMEDICAL APPLICATIONS OF AZOBENZENE-BASED LIPIDOIDS” (Trustees of Tufts College, priority 2022, published 2026)

Experiments:
[1] = Photoisomerization of Azo lipidoids in DMSO (UV-Vis absorption); format: physicochemical; settings: for UV irradiation time until spectral changes level off (photostationary state): UV 365 nm, 5.40 mW/cm^2; for additional Vis irradiation time that reverses the spectral change: Vis >400 nm, 20 mW/cm^2
Protocol: Azo lipidoid was prepared as 50 μM solution in anhydrous dimethyl sulfoxide (DMSO). The sample was irradiated with UV (365 nm for 6 s) and Vis light (>400 nm for 6 s), respectively. The power densities for 365 and >400 nm was 5.40 and 20 mW/cm^2, respectively.
SAzo lipidoid was prepared as 30 μM solution in anhydrous dimethyl sulfoxide (DMSO). TAzo lipidoid was prepared as 15 μM solution in DMSO. These samples were irradiated with UV (365 nm for 6 s) and Vis light (>400 nm for 6 s), respectively. The power densities for 365 and >400 nm are 5.40 and 20 mW/cm^2, respectively.

[2] = Critical micelle concentration in aqueous solution; format: physicochemical
4T1 tumor cells = assay: Cell cytotoxicity using CCK-8 assay; format: cell-based, mouse
Protocol: In vitro cytotoxicity was assessed by the standard CCK-8 assay. To test the cytotoxicity of DSPC-Azo@GOx with or without UV/Vis light irradiation, 4T1 tumor cells were seeded in the basolateral chamber of a 24-well transwell plate at a density of 10^5 cells per well and cultured in 5% CO2 at 37° C. for overnight (16 h). Then, DSPC-Azo@GOx was added to the upper chamber. Then, the samples were irradiated using the UV/Vis light (irradiated for 5 min every 8 hours). After three irradiation, the cell viability was measured using CCK-8 kit according to the manufacturer's instruction.

[3] = helper lipid; cited from earlier work

UV irradiation time until spectral changes level off (photostationary state) [1] | additional Vis irradiation time that reverses the spectral change [1] | Compound | Tm (phase transition temperature) [3] | headgroup surface area [3] | also measured
6 s | 6 s | CCCCCCCCCCCC(=O)Nc1ccc(/N=N/c2ccc(C[N+](C)(C)C)cc2)cc1 [Azo lipidoid] |  |  | critical micelle concentration (CMC) [2]: ≈ 30 μM; dose dependent cell viability (4T1 tumor cells; 4T1 cells, 24 h incubation): relatively good biocompatibility
 |  | CCCCCCCCCCCCCC(=O)OC[C@H](COP(=O)([O-])OCC[N+](C)(C)C)OC(=O)CCCCCCCCCCCCC [DMPC, dimyristoylphosphatidylcholine] | 24.1 °C | ~ 0.665 nm^2 | 
 |  | CCCCCCCCCCCCCCCC(=O)OC[C@H](COP(=O)([O-])OCC[N+](C)(C)C)OC(=O)CCCCCCCCCCCCCCC [DPPC, dipalmitoylphosphatidylcholine] | 41.3 °C | ~ 0.665 nm^2 | 
 |  | CCCCCCCCCCCCCCCCCC(=O)OC[C@H](COP(=O)([O-])OCC[N+](C)(C)C)OC(=O)CCCCCCCCCCCCCCCCC [DSPC, distearoylphosphatidylcholine] | 55 °C | ~ 0.430 nm^2 | 
6 s | 6 s | CCCCCCCCCCCC(=O)Nc1ccc(/N=N/c2ccc(C[N+](C)(C)CC[N+](C)(C)Cc3ccc(/N=N/c4ccc(NC(=O)CCCCCCCCCCC)cc4)cc3)cc2)cc1 [TAzo lipidoid] |  |  | 
 |  | Glucose Oxidase [GOx] |  |  | cell viability with versus without UV/Vis light treatment (4T1 tumor cells; dialysis setup, 24 h): no significant differences in cell viabilities
